This data set in a line: Plasma pharmacokinetics of simvastatin and simvastatin hydroxy acid after oral simvastatin alone and combined with imatinib in CML patients (LC/MS/MS). The following applies: for t1/2: simvastatin in plasma, mean±s.d., in h.

`CCC(C)(C)C(=O)O[C@H]1C[C@@H](C)C=C2C=C[C@H](C)[C@H](CC[C@@H]3C[C@@H](O)CC(=O)O3)[C@H]21` [Simvastatin]: where the note is “both, human, plasma, po, 40 mg”, the Tmax (commonly the time from dosing to the highest level) came to 1 h; the Vd/F – broadly, the volume of distribution divided by bioavailability – stood at 3120 ± 2750 L; the half-life (commonly how long it takes for the measured level to halve) is 1.4 h. The “mean reduction of total-body clearance from plasma (CL/F)” value (simvastatin 40 mg coadministered with imatinib 400 mg, P<0.001) came to 70%. For the same compound, the t1/2 (40 mg simvastatin oral alone (day 1)) was 1.4±0.8. In addition, the t1/2 (40 mg simvastatin oral plus 400 mg imatinib oral (day 8)) is on record as 2.7±1.3.

The values above are taken from PMC2394453 (British Journal of Cancer, 2003).
